Measured values taken from paper PMC5218480 (PLoS ONE, 2017).

Tested on: MV-4-11 cells
Test: Gene expression microarray analysis (Affymetrix PrimeView) and GSEA
Type: cell-based, human
Design: RFU PODN (11730768_x_at) / Fold change /veh PODN (11730768_x_at) / RFU LINC00158 (11744669_a_at) / Fold change /veh LINC00158 (11744669_a_at) / RFU DUSP10 (11751237_a_at) / Fold change /veh DUSP10 (11751237_a_at) / RFU ID3 (11757404_x_at) / Fold change /veh ID3 (11757404_x_at) / RFU PLEKHG5 (11737974_s_at) / Fold change /veh PLEKHG5 (11737974_s_at) / RFU LRRC4B (11730491_at) / Fold change /veh LRRC4B (11730491_at) / RFU GIMAP4 (11747438_a_at) / Fold change /veh GIMAP4 (11747438_a_at) / RFU KRT8 (11758183_x_at) / Fold change /veh KRT8 (11758183_x_at) / RFU CNN1 (11734310_a_at) / Fold change /veh CNN1 (11734310_a_at) / RFU VPS37D (11726825_at) / Fold change /veh VPS37D (11726825_at) / RFU C10orf10 (11716522_x_at) / Fold change /veh C10orf10 (11716522_x_at) / RFU KIR2DL2 /// KIR2DL4 /// KIR2DL5A /// KIR2DL5B /// KIR2DS1 /// KIR2DS2 /// KIR2DS3 /// KIR2DS4 /// KIR3DL3 /// KIR3DL3 /// KIR3DS1 (11738374_at) / Fold change /veh KIR2DL2 /// KIR2DL4 /// KIR2DL5A /// KIR2DL5B /// KIR2DS1 /// KIR2DS2 /// KIR2DS3 /// KIR2DS4 /// KIR3DL3 /// KIR3DL3 /// KIR3DS1 (11738374_at) / RFU C1QL1 (11718748_at) / Fold change /veh C1QL1 (11718748_at) / RFU TMPRSS4 (11747572_a_at) / Fold change /veh TMPRSS4 (11747572_a_at) / RFU HAMP (11756126_x_at) / Fold change /veh HAMP (11756126_x_at) / RFU RNFT2 (11725882_a_at) / Fold change /veh RNFT2 (11725882_a_at) / RFU NR4A2 (11747474_a_at) / Fold change /veh NR4A2 (11747474_a_at) / RFU ABCC12 (11746883_a_at) / Fold change /veh ABCC12 (11746883_a_at) / RFU TMEM136 (11760407_x_at) / Fold change /veh TMEM136 (11760407_x_at) / RFU CLDN22 /// WWC2 (11732394_at) / Fold change /veh CLDN22 /// WWC2 (11732394_at) / RFU HLA-DPB1 (11760878_x_at) / Fold change /veh HLA-DPB1 (11760878_x_at) / RFU SPINT1 (11716480_a_at) / Fold change /veh SPINT1 (11716480_a_at) / RFU GAP43 (11754022_s_at) / Fold change /veh GAP43 (11754022_s_at) / RFU A4GNT (11735810_at) / Fold change /veh A4GNT (11735810_at) / RFU PRB3 (11715151_x_at) / Fold change /veh PRB3 (11715151_x_at) / RFU TUBB4B (11761932_at) / Fold change /veh TUBB4B (11761932_at) / RFU CAPN14 (11732068_a_at) / Fold change /veh CAPN14 (11732068_a_at) / RFU TMCC2 (11721928_a_at) / Fold change /veh TMCC2 (11721928_a_at) / RFU IRGQ (11745062_a_at) / Fold change /veh IRGQ (11745062_a_at) / RFU FAM174B (11720279_a_at) / Fold change /veh FAM174B (11720279_a_at) / RFU TMPRSS4 (11748680_a_at) / Fold change /veh TMPRSS4 (11748680_a_at) / RFU FAM212B (11763350_a_at) / Fold change /veh FAM212B (11763350_a_at) / RFU PLEKHG5 (11743358_a_at) / Fold change /veh PLEKHG5 (11743358_a_at) / RFU ZSCAN30 (11745921_a_at) / Fold change /veh ZSCAN30 (11745921_a_at) / RFU CMKLR1 (11741424_a_at) / Fold change /veh CMKLR1 (11741424_a_at) / RFU LOC101060620 /// MAPK8IP1 (11723275_at) / Fold change /veh LOC101060620 /// MAPK8IP1 (11723275_at) / RFU SPTSSB (11747773_x_at) / Fold change /veh SPTSSB (11747773_x_at) / RFU PRSS12 (11739890_at) / Fold change /veh PRSS12 (11739890_at) / RFU BIN1 (11741810_x_at) / Fold change /veh BIN1 (11741810_x_at) / RFU WNT11 (11732464_a_at) / Fold change /veh WNT11 (11732464_a_at) / RFU C10orf10 (11716521_a_at) / Fold change /veh C10orf10 (11716521_a_at) / RFU C5orf56 (11738089_at) / Fold change /veh C5orf56 (11738089_at) / RFU CYB561 (11721691_x_at) / Fold change /veh CYB561 (11721691_x_at) / RFU ANKRD19P (11752326_a_at) / Fold change /veh ANKRD19P (11752326_a_at) / RFU OR2T12 /// OR2T33 /// OR2T8 (11738714_s_at) / Fold change /veh OR2T12 /// OR2T33 /// OR2T8 (11738714_s_at) / RFU VCAN (11748164_a_at) / Fold change /veh VCAN (11748164_a_at) / RFU JSRP1 (11732532_at) / Fold change /veh JSRP1 (11732532_at) / RFU KRTAP10-11 (11738290_x_at) / Fold change /veh KRTAP10-11 (11738290_x_at) / RFU MYO3A (11730013_a_at) / Fold change /veh MYO3A (11730013_a_at) / RFU EBF3 (11725865_a_at) / Fold change /veh EBF3 (11725865_a_at) / RFU CAMK2N1 (11719241_x_at) / Fold change /veh CAMK2N1 (11719241_x_at) / RFU C5orf56 (11738088_a_at) / Fold change /veh C5orf56 (11738088_a_at) / RFU OLFML3 (11715873_a_at) / Fold change /veh OLFML3 (11715873_a_at) / RFU LOC100653217 /// NTM (11731650_a_at) / Fold change /veh LOC100653217 /// NTM (11731650_a_at) / RFU MAPK11 (11762145_a_at) / Fold change /veh MAPK11 (11762145_a_at) / RFU FIZ1 (11724087_x_at) / Fold change /veh FIZ1 (11724087_x_at) / RFU OASL (11726364_x_at) / Fold change /veh OASL (11726364_x_at) / RFU SOX15 (11748057_x_at) / Fold change /veh SOX15 (11748057_x_at) / RFU CD79A (11719716_a_at) / Fold change /veh CD79A (11719716_a_at) / RFU HIST1H1D (11736915_at) / Fold change /veh HIST1H1D (11736915_at) / RFU CASKIN2 (11723855_a_at) / Fold change /veh CASKIN2 (11723855_a_at) / RFU LOC730098 (11760151_x_at) / Fold change /veh LOC730098 (11760151_x_at) / RFU OR4N2 (11742367_at) / Fold change /veh OR4N2 (11742367_at) / RFU PRRT2 (11749266_a_at) / Fold change /veh PRRT2 (11749266_a_at) / RFU SNX32 (11753110_a_at) / Fold change /veh SNX32 (11753110_a_at) / RFU CDHR5 (11726645_a_at) / Fold change /veh CDHR5 (11726645_a_at) / RFU RCAN1 (11760418_a_at) / Fold change /veh RCAN1 (11760418_a_at) / RFU FAM167A (11723789_a_at) / Fold change /veh FAM167A (11723789_a_at) / RFU FAM26E (11764081_at) / Fold change /veh FAM26E (11764081_at) / RFU ISYNA1 (11749810_s_at) / Fold change /veh ISYNA1 (11749810_s_at) / RFU ACY1 (11761880_at) / Fold change /veh ACY1 (11761880_at) / RFU 11764098_at / Fold change /veh 11764098_at / RFU SAMD14 (11745864_x_at) / Fold change /veh SAMD14 (11745864_x_at) / RFU NPB (11741838_a_at) / Fold change /veh NPB (11741838_a_at) / RFU TMPRSS6 (11731388_a_at) / Fold change /veh TMPRSS6 (11731388_a_at) / RFU KRTAP10-2 (11738614_at) / Fold change /veh KRTAP10-2 (11738614_at) / RFU ARHGAP8 /// PRR5-ARHGAP8 (11727945_x_at) / Fold change /veh ARHGAP8 /// PRR5-ARHGAP8 (11727945_x_at) / RFU KRTAP5-7 /// NADSYN1 (11734609_at) / Fold change /veh KRTAP5-7 /// NADSYN1 (11734609_at) / RFU RASL12 (11751679_a_at) / Fold change /veh RASL12 (11751679_a_at) / RFU CDKN2B (11736163_a_at) / Fold change /veh CDKN2B (11736163_a_at) / RFU PRF1 (11729649_at) / Fold change /veh PRF1 (11729649_at) / RFU, ZNF638 /// ZNF638-IT1 / Fold change vs veh, ZNF638 /// ZNF638-IT1 / RFU, PANK3 / Fold change vs veh, PANK3 / RFU, SH3YL1 / Fold change vs veh, SH3YL1 / RFU, ZEB2 / Fold change vs veh, ZEB2 / RFU, NRIP1 / Fold change vs veh, NRIP1 / RFU, PTTG1IP / Fold change vs veh, PTTG1IP / RFU, CAPN2 / Fold change vs veh, CAPN2 / RFU, MED14 / Fold change vs veh, MED14 / RFU, SNORA58 / Fold change vs veh, SNORA58 / RFU, C1orf63 / Fold change vs veh, C1orf63 / RFU, LRRFIP1 / Fold change vs veh, LRRFIP1 / RFU, NDUFAF7 / Fold change vs veh, NDUFAF7 / RFU, SLC12A2 / Fold change vs veh, SLC12A2 / RFU, IBTK / Fold change vs veh, IBTK / RFU, ESF1 / Fold change vs veh, ESF1 / Fold change vs veh, TMEM50B / RFU, TAOK1 / Fold change vs veh, TAOK1 / RFU, ACBD3 / Fold change vs veh, ACBD3 / RFU, TMA16 / Fold change vs veh, TMA16 / RFU, RWDD3 / Fold change vs veh, RWDD3 / RFU, BCAT1 / Fold change vs veh, BCAT1 / RFU, EDEM3 / Fold change vs veh, EDEM3 / RFU, TMEM33 / Fold change vs veh, TMEM33 / RFU, WDR75 / Fold change vs veh, WDR75 / RFU, AHCTF1 / Fold change vs veh, AHCTF1 / RFU, TFRC / Fold change vs veh, TFRC / RFU, ZDHHC17 / Fold change vs veh, ZDHHC17 / RFU, NOM1 / Fold change vs veh, NOM1 / RFU, ARL8B / Fold change vs veh, ARL8B / RFU, ZBTB11 / Fold change vs veh, ZBTB11 / RFU, TAMM41 / Fold change vs veh, TAMM41 / RFU, KIAA1704 /// LOC100996395 / Fold change vs veh, KIAA1704 /// LOC100996395 / RFU, ING1 / Fold change vs veh, ING1 / RFU, TRMT61B / Fold change vs veh, TRMT61B / RFU, FUBP3 / Fold change vs veh, FUBP3 / RFU, TP53 / Fold change vs veh, TP53 / RFU, TNKS2 / Fold change vs veh, TNKS2 / RFU, ZFP14 / Fold change vs veh, ZFP14 / RFU, ACTR2 / Fold change vs veh, ACTR2 / RFU, PPP3R1 / Fold change vs veh, PPP3R1 / RFU, PIK3R1 / Fold change vs veh, PIK3R1 / RFU, HNRNPA1 / Fold change vs veh, HNRNPA1 / RFU, RNF170 / Fold change vs veh, RNF170 / RFU, ZNF28 / Fold change vs veh, ZNF28 / RFU, RNGTT / Fold change vs veh, RNGTT / RFU, OGT / Fold change vs veh, OGT / RFU, BRD1 / Fold change vs veh, BRD1 / RFU, MARS / Fold change vs veh, MARS / RFU, ZNF655 / Fold change vs veh, ZNF655 / RFU, FAHD1 / Fold change vs veh, FAHD1 / RFU, BDP1 / Fold change vs veh, BDP1 / RFU, LRRCC1 / Fold change vs veh, LRRCC1 / RFU, ARID1A / Fold change vs veh, ARID1A / RFU, ZNF146 / Fold change vs veh, ZNF146 / RFU, ZNF330 / Fold change vs veh, ZNF330 / RFU, GPN3 / Fold change vs veh, GPN3 / RFU, C9orf123 / Fold change vs veh, C9orf123 / RFU, N4BP2L2 / Fold change vs veh, N4BP2L2 / RFU, ARFIP1 / Fold change vs veh, ARFIP1 / RFU, FAM179B / Fold change vs veh, FAM179B / RFU, BCL10 / Fold change vs veh, BCL10 / RFU, UHRF1BP1L / Fold change vs veh, UHRF1BP1L / RFU, BET1 / Fold change vs veh, BET1 / RFU, CNOT2 / Fold change vs veh, CNOT2 / RFU, ZNF268 / Fold change vs veh, ZNF268 / Fold change vs veh, ZNF507 / RFU, DGCR2 / Fold change vs veh, DGCR2 / RFU, WDSUB1 / Fold change vs veh, WDSUB1 / Fold change vs veh, HSP90B1 /// MIR3652 / RFU, ADSS / Fold change vs veh, ADSS / RFU, GK / Fold change vs veh, GK / RFU, ZNF148 / Fold change vs veh, ZNF148 / RFU, TAF9 / Fold change vs veh, TAF9 / RFU, SLC1A5 / Fold change vs veh, SLC1A5 / RFU, SLMO2 / Fold change vs veh, SLMO2 / RFU, ABCC4 / Fold change vs veh, ABCC4 / RFU, LOC101060439 /// RAP1B / Fold change vs veh, LOC101060439 /// RAP1B / RFU, RFX7 / Fold change vs veh, RFX7 / RFU, GTPBP10 / Fold change vs veh, GTPBP10 / RFU, CNEP1R1 / Fold change vs veh, CNEP1R1 / RFU, BIVM-ERCC5 /// ERCC5 / Fold change vs veh, BIVM-ERCC5 /// ERCC5 / RFU, ILF3 / Fold change vs veh, ILF3 / RFU 11762660_at / Fold change /veh 11762660_at / RFU VCAN (11757783_s_at) / Fold change /veh VCAN (11757783_s_at) / RFU DDX43 (11728927_at) / Fold change /veh DDX43 (11728927_at) / RFU KRT8 (11758188_x_at) / Fold change /veh KRT8 (11758188_x_at) / RFU NKD1 (11759106_at) / Fold change /veh NKD1 (11759106_at) / RFU SRD5A1 (11742802_a_at) / Fold change /veh SRD5A1 (11742802_a_at) / RFU TPSAB1 /// TPSB2 (11721975_s_at) / Fold change /veh TPSAB1 /// TPSB2 (11721975_s_at) / RFU GSTM3 (11746129_a_at) / Fold change /veh GSTM3 (11746129_a_at) / RFU IL23R (11737362_x_at) / Fold change /veh IL23R (11737362_x_at) / RFU TMEM51 (11727254_a_at) / Fold change /veh TMEM51 (11727254_a_at) / RFU PIWIL2 (11732686_x_at) / Fold change /veh PIWIL2 (11732686_x_at) / RFU ORM1 (11744905_x_at) / Fold change /veh ORM1 (11744905_x_at) / RFU CCDC152 (11743942_at) / Fold change /veh CCDC152 (11743942_at) / RFU ECM1 (11717891_a_at) / Fold change /veh ECM1 (11717891_a_at) / RFU IL23R (11748794_a_at) / Fold change /veh IL23R (11748794_a_at) / RFU TNFAIP8L3 (11732012_x_at) / Fold change /veh TNFAIP8L3 (11732012_x_at) / RFU MBOAT4 (11741988_at) / Fold change /veh MBOAT4 (11741988_at) / RFU 11764193_at / Fold change /veh 11764193_at / RFU TMEM53 (11763286_at) / Fold change /veh TMEM53 (11763286_at) / RFU MAGEB2 (11727129_at) / Fold change /veh MAGEB2 (11727129_at) / RFU TMEM200A (11744735_a_at) / Fold change /veh TMEM200A (11744735_a_at) / RFU CCDC152 (11751479_a_at) / Fold change /veh CCDC152 (11751479_a_at) / RFU FAM211A (11726209_a_at) / Fold change /veh FAM211A (11726209_a_at) / RFU RGS16 (11746705_a_at) / Fold change /veh RGS16 (11746705_a_at) / RFU VCAN (11755009_s_at) / Fold change /veh VCAN (11755009_s_at) / RFU RHOB (11743442_s_at) / Fold change /veh RHOB (11743442_s_at) / RFU RGS16 (11720943_a_at) / Fold change /veh RGS16 (11720943_a_at) / RFU RGS16 (11720944_at) / Fold change /veh RGS16 (11720944_at) / RFU, VPS4B / Fold change vs veh, VPS4B / RFU, CREB1 / Fold change vs veh, CREB1 / RFU, DNAJC13 / Fold change vs veh, DNAJC13 / RFU, GNAQ / Fold change vs veh, GNAQ / RFU, CDK5R1 / Fold change vs veh, CDK5R1 / RFU, ZRANB3 / Fold change vs veh, ZRANB3 / RFU, CUL4A / Fold change vs veh, CUL4A / RFU, CCNY / Fold change vs veh, CCNY / RFU, UFL1 / Fold change vs veh, UFL1 / RFU, COG3 / Fold change vs veh, COG3 / RFU, DIAPH2 / Fold change vs veh, DIAPH2 / RFU, SKA2 / Fold change vs veh, SKA2 / RFU, AFF3 / Fold change vs veh, AFF3 / RFU, LMF1 / Fold change vs veh, LMF1 / RFU, IPO11 / Fold change vs veh, IPO11 / RFU, DFFB / Fold change vs veh, DFFB / RFU, FOXP1 / Fold change vs veh, FOXP1 / RFU, CARD8 / Fold change vs veh, CARD8 / RFU, STRN3 / Fold change vs veh, STRN3 / RFU, ADK / Fold change vs veh, ADK / RFU, RASSF2 / Fold change vs veh, RASSF2 / RFU, WIPF1 / Fold change vs veh, WIPF1 / RFU, LARP1B / Fold change vs veh, LARP1B / RFU, RASA1 / Fold change vs veh, RASA1 / RFU, RB1 / Fold change vs veh, RB1 / RFU, PPFIA1 / Fold change vs veh, PPFIA1 / RFU, MAT2A / Fold change vs veh, MAT2A / RFU, CCT5 / Fold change vs veh, CCT5 / RFU, WDR92 / Fold change vs veh, WDR92 / RFU, CUX1 / Fold change vs veh, CUX1 / RFU, TTC7A / Fold change vs veh, TTC7A / RFU, TMEM135 / Fold change vs veh, TMEM135 / RFU, DEPTOR / Fold change vs veh, DEPTOR / RFU, CPM / Fold change vs veh, CPM / RFU, DNAJB6 / Fold change vs veh, DNAJB6 / RFU, CACNA2D3 / Fold change vs veh, CACNA2D3 / RFU, DTX4 / Fold change vs veh, DTX4 / RFU, TFCP2 / Fold change vs veh, TFCP2 / RFU, GMCL1 /// GMCL1P1 / Fold change vs veh, GMCL1 /// GMCL1P1 / RFU, AEBP2 / Fold change vs veh, AEBP2 / RFU, SNHG1 /// SNORD22 /// SNORD25 /// SNORD26 /// SNORD27 /// SNORD28 /// SNORD29 /// SNORD31 / Fold change vs veh, SNHG1 /// SNORD22 /// SNORD25 /// SNORD26 /// SNORD27 /// SNORD28 /// SNORD29 /// SNORD31 / Fold change (Aza/veh), C12orf56 (ProbeSet 11735607_a_at) / Fold change (ACY-1035/veh), C12orf56 (ProbeSet 11735607_a_at) / Fold change (Aza/veh), FGFR1OP (ProbeSet 11751329_s_at) / Fold change (ACY-1035/veh), FGFR1OP (ProbeSet 11751329_s_at) / Fold change (Aza/veh), VPS36 (ProbeSet 11739960_a_at) / Fold change (ACY-1035/veh), VPS36 (ProbeSet 11739960_a_at) / RFU SYPL1 (11715823_x_at) / Fold change /veh SYPL1 (11715823_x_at) / RFU IGFBP7 (11715501_s_at) / Fold change /veh IGFBP7 (11715501_s_at) / RFU REEP3 (11722064_at) / Fold change /veh REEP3 (11722064_at) / RFU IGLL1 (11728026_x_at) / Fold change /veh IGLL1 (11728026_x_at): dose or concentration left out as unconfirmed
Details: MV-4-11 cells, 48 hours

Q: `Nc1ccc(-c2cccs2)cc1NC(=O)c1ccc2c(c1)cc(C1CC1)n2CCN1CCOCC1` [ACY-1035] was tested. Which “Fold change /veh CAPN14 (11732068_a_at)” value did it give?
A: The value was 1.08.
